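A five-concentration, 48-hour dose response in 96-well plates underlies each endpoint, interpolated linearly between surrounding concentrations. At the GI50, growth is halved.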 The source made the active and inactive calls. Rule as the data show it: active = GI50 up to about 1.1 µM and inactive = higher.
How the values were obtained:
Test in all cases: NCI-60 cell line screen, 48 h
786-0 = tested on: 786-0
A549 = tested on: A549
ACHN = tested on: ACHN
BT-549 = tested on: BT-549
CAKI-1 = tested on: CAKI-1
CCRF-CEM = tested on: CCRF-CEM
COLO 205 = tested on: COLO 205
DU-145 = tested on: DU-145
EKVX = tested on: EKVX
HCT-116 = tested on: HCT-116
HCT-15 = tested on: HCT-15
HL-60 = tested on: HL-60
HOP-62 = tested on: HOP-62
HOP-92 = tested on: HOP-92
HT-29 = tested on: HT-29
Hs-578T = tested on: Hs-578T
IGROV-1 = tested on: IGROV-1
K562 = tested on: K562
KM12 = tested on: KM12
LOX IMVI = tested on: LOX IMVI
M14 = tested on: M14
MCF7 = tested on: MCF7
MDA-MB-435 = tested on: MDA-MB-435
MDA-N = tested on: MDA-N
MOLT-4 = tested on: MOLT-4
Malme-3M = tested on: Malme-3M
NCI-H226 = tested on: NCI-H226
NCI-H23 = tested on: NCI-H23
NCI-H460 = tested on: NCI-H460
NCI-H522 = tested on: NCI-H522
NCI/ADR-RES = tested on: NCI/ADR-RES
OVCAR-3 = tested on: OVCAR-3
OVCAR-4 = tested on: OVCAR-4
OVCAR-5 = tested on: OVCAR-5
OVCAR-8 = tested on: OVCAR-8
PC-3 = tested on: PC-3
RPMI-8226 = tested on: RPMI-8226
SF-268 = tested on: SF-268
SF-295 = tested on: SF-295
SK-MEL-28 = tested on: SK-MEL-28
SK-MEL-2 = tested on: SK-MEL-2
SK-MEL-5 = tested on: SK-MEL-5
SK-OV-3 = tested on: SK-OV-3
SNB-19 = tested on: SNB-19
SNB-75 = tested on: SNB-75
SR = tested on: SR
SW-620 = tested on: SW-620
T47D = tested on: T47D
TK-10 = tested on: TK-10
U-251 = tested on: U-251
UACC-257 = tested on: UACC-257
UACC-62 = tested on: UACC-62
UO-31 = tested on: UO-31
A498 = tested on: A498
HCC 2998 = tested on: HCC 2998
MDA-MB-231 = tested on: MDA-MB-231
RXF 393 = tested on: RXF 393
SF-539 = tested on: SF-539
SN12C = tested on: SN12C

Measured: GI50

CC1(C)/C(=N\NC(N)=O)C2CCC1C2 (centres undefined)
inactive: 786-0 > 100 µM | A549 > 100 µM | ACHN > 100 µM | BT-549 > 100 µM | CAKI-1 > 100 µM | CCRF-CEM > 100 µM | COLO 205 > 100 µM | DU-145 > 100 µM | EKVX > 100 µM | HCT-116 > 100 µM | HL-60 > 100 µM | HOP-62 > 100 µM | HOP-92 > 100 µM | HT-29 > 100 µM | Hs-578T > 100 µM | IGROV-1 > 100 µM | K562 > 100 µM | KM12 > 100 µM | LOX IMVI > 100 µM | M14 > 100 µM | MCF7 > 100 µM | MDA-MB-435 > 100 µM | MDA-N > 100 µM | MOLT-4 > 100 µM | Malme-3M > 100 µM | NCI-H226 > 100 µM | NCI-H23 > 100 µM | NCI-H460 > 100 µM | NCI-H522 > 100 µM | NCI/ADR-RES > 100 µM | OVCAR-3 > 100 µM | OVCAR-4 > 100 µM | OVCAR-5 > 100 µM | OVCAR-8 > 100 µM | PC-3 > 100 µM | RPMI-8226 > 100 µM | SF-268 > 100 µM | SF-295 > 100 µM | SK-MEL-28 > 100 µM | SK-MEL-2 > 100 µM | SK-MEL-5 > 100 µM | SK-OV-3 > 100 µM | SNB-19 > 100 µM | SNB-75 > 100 µM | SR > 100 µM | SW-620 > 100 µM | T47D > 100 µM | TK-10 > 100 µM | U-251 > 100 µM | UACC-257 > 100 µM | UACC-62 > 100 µM | UO-31 > 100 µM
> 100 µM: HCT-15

CC1(C)[C@@H]2C[C@H]1c1cnc(-c3ccccn3)cc1C2CCCCC[C@@H]1c2cc(-c3ccccn3)ncc2[C@@H]2C[C@H]1C2(C)C (some centres undefined)
5.9 µM: HCT-15
active: 786-0 0.493 µM | A549 0.869 µM | CAKI-1 0.628 µM | CCRF-CEM 0.502 µM | COLO 205 0.578 µM | HCT-116 0.489 µM | HL-60 0.426 µM | HT-29 0.759 µM | K562 0.473 µM | LOX IMVI 0.625 µM | MCF7 0.809 µM | MOLT-4 0.357 µM | OVCAR-3 0.404 µM | OVCAR-4 0.384 µM | RXF 393 0.745 µM | SF-268 0.687 µM | SF-295 0.871 µM | SF-539 0.199 µM | SNB-75 0.74 µM | SR 0.653 µM | SW-620 0.83 µM | U-251 0.897 µM | UACC-257 0.655 µM | UACC-62 0.946 µM | UO-31 0.853 µM
inactive: A498 3.5 µM | ACHN 1.82 µM | BT-549 14.1 µM | DU-145 1.41 µM | EKVX 2.56 µM | HCC 2998 7.1 µM | HOP-62 1.42 µM | IGROV-1 1.63 µM | KM12 1.48 µM | M14 1.61 µM | MDA-MB-231 8.15 µM | MDA-MB-435 1.38 µM | MDA-N 1.36 µM | Malme-3M 3.19 µM | NCI-H226 1.23 µM | NCI-H23 1.82 µM | NCI-H460 1.99 µM | NCI-H522 1.71 µM | NCI/ADR-RES 25.6 µM | OVCAR-5 > 20.3 µM | OVCAR-8 1.88 µM | PC-3 1.32 µM | RPMI-8226 2.51 µM | SK-MEL-28 2.29 µM | SK-MEL-2 7.1 µM | SK-MEL-5 4.18 µM | SN12C 1.53 µM | SNB-19 1.78 µM | T47D 1.69 µM | TK-10 > 49.2 µM

COC(=O)N1CC(=O)C(C(=O)NC23CC4CC(CC(C4)C2)C3)C1 (centres undefined)
inactive: 786-0 33.3 µM | A498 > 100 µM | A549 > 100 µM | ACHN 74.3 µM | BT-549 66.7 µM | CAKI-1 > 100 µM | CCRF-CEM 42.5 µM | COLO 205 62.1 µM | DU-145 76.4 µM | HCC 2998 37 µM | HCT-116 64.6 µM | HL-60 32.1 µM | HOP-92 > 100 µM | HT-29 78.9 µM | IGROV-1 > 100 µM | K562 55.2 µM | KM12 41.8 µM | M14 > 100 µM | MCF7 45.3 µM | MDA-MB-231 42.7 µM | MDA-MB-435 > 100 µM | MDA-N > 100 µM | MOLT-4 35.8 µM | Malme-3M 78.7 µM | NCI-H226 > 100 µM | NCI-H23 > 100 µM | NCI-H460 78.7 µM | NCI-H522 49.3 µM | NCI/ADR-RES 84.1 µM | OVCAR-3 > 100 µM | OVCAR-4 > 100 µM | OVCAR-5 > 100 µM | OVCAR-8 73.1 µM | PC-3 52 µM | RPMI-8226 32.8 µM | RXF 393 82 µM | SF-268 37.7 µM | SF-295 56.6 µM | SF-539 72.9 µM | SK-MEL-28 66.4 µM | SK-MEL-2 77.3 µM | SK-MEL-5 45.6 µM | SNB-19 > 100 µM | SR 48.3 µM | SW-620 > 100 µM | T47D 47.8 µM | TK-10 > 100 µM | U-251 67.3 µM | UACC-257 > 100 µM | UACC-62 69.7 µM | UO-31 > 100 µM
39.2 µM: HCT-15

CN(CCc1ccccn1)c1ccc2c(c1)C(=O)c1ccccc1-2
23 µM: HCT-15
inactive: 786-0 41.3 µM | A498 35.2 µM | A549 14.4 µM | ACHN > 100 µM | BT-549 78.9 µM | CAKI-1 > 100 µM | CCRF-CEM > 100 µM | COLO 205 35.5 µM | DU-145 > 100 µM | EKVX 18.5 µM | HCC 2998 > 100 µM | HCT-116 > 100 µM | HOP-62 > 100 µM | HOP-92 15.2 µM | HT-29 66.4 µM | Hs-578T 73.3 µM | IGROV-1 > 100 µM | K562 51.8 µM | KM12 > 100 µM | LOX IMVI > 100 µM | M14 > 100 µM | MCF7 > 100 µM | MDA-MB-231 > 100 µM | MDA-MB-435 > 100 µM | MDA-N 64.9 µM | Malme-3M > 100 µM | NCI-H226 40.6 µM | NCI-H23 > 100 µM | NCI-H460 9.68 µM | NCI-H522 71.1 µM | NCI/ADR-RES > 100 µM | OVCAR-3 > 100 µM | OVCAR-4 69.5 µM | OVCAR-5 > 100 µM | OVCAR-8 99.1 µM | PC-3 > 100 µM | RPMI-8226 38.3 µM | RXF 393 > 100 µM | SF-268 > 100 µM | SF-295 91.4 µM | SK-MEL-28 > 100 µM | SK-MEL-2 28.5 µM | SK-MEL-5 35.1 µM | SK-OV-3 > 100 µM | SN12C 53.8 µM | SNB-19 88.9 µM | SNB-75 99.1 µM | SW-620 > 100 µM | T47D 73.8 µM | TK-10 > 100 µM | U-251 43.3 µM | UACC-257 54.6 µM | UACC-62 46.1 µM | UO-31 > 100 µM

N#Cc1c(NC(=O)CCC(=O)O)ccc2ccccc12
inactive: 786-0 > 100 µM | A498 > 100 µM | A549 > 100 µM | ACHN > 100 µM | BT-549 > 100 µM | CAKI-1 > 100 µM | COLO 205 > 100 µM | DU-145 > 100 µM | EKVX > 100 µM | HCT-116 > 100 µM | HOP-62 > 100 µM | HOP-92 > 100 µM | HT-29 > 100 µM | Hs-578T > 100 µM | IGROV-1 > 100 µM | K562 > 100 µM | KM12 > 100 µM | M14 > 100 µM | MCF7 > 100 µM | MDA-MB-231 > 100 µM | MDA-MB-435 > 100 µM | MDA-N > 100 µM | Malme-3M > 100 µM | NCI-H226 > 100 µM | NCI-H23 > 100 µM | NCI-H460 > 100 µM | NCI-H522 > 100 µM | NCI/ADR-RES > 100 µM | OVCAR-3 > 100 µM | OVCAR-4 > 100 µM | OVCAR-5 > 100 µM | OVCAR-8 > 100 µM | PC-3 > 100 µM | RPMI-8226 > 100 µM | RXF 393 > 100 µM | SF-268 > 100 µM | SF-295 > 100 µM | SF-539 > 100 µM | SK-MEL-28 > 100 µM | SK-MEL-2 > 100 µM | SK-MEL-5 > 100 µM | SK-OV-3 > 100 µM | SN12C > 100 µM | SNB-19 > 100 µM | SNB-75 64.1 µM | SW-620 > 100 µM | T47D > 100 µM | TK-10 > 100 µM | U-251 > 100 µM | UACC-257 > 100 µM | UACC-62 > 100 µM | UO-31 > 100 µM
> 100 µM: HCT-15
